Drawing on publication PMC12040169 (PLOS Biology, 2025), this text covers viability for 73 compounds.

The first data set is described as follows: in vitro. The following applies: human, hela cells, % viability.
What is called viability is a read-out of living cells in per cent, often relative to untreated cells. `COc1cc(C2C3=C(CC(C)(C)CC3=O)OC3=C2C(=O)CC(C)(C)C3)ccc1OCC(=O)O` [CBK262379]: the viability at 28.5 h, 10 µM stood at 94.8%. As for `CN1CCN(c2cc(N3CCN(C)CC3)c([N+](=O)[O-])cc2C2Nc3ccc4ccccc4c3C3=C2C(=O)CC(C)(C)C3)CC1` (stereo not shown) [CBK262381], the viability at 28.5 h, 10 µM was 93.9%. As to `CN1CCN(C(=O)CCCN2C(=O)c3cccc4cccc(c34)C2=O)CC1` [CBK262383], the viability at 28.5 h, 10 µM is 96.9%.

As for `O=S(=O)(Oc1ccc2ccccc2c1)c1ccc2c(c1)Cc1cc(S(=O)(=O)Oc3ccc4ccccc4c3)ccc1-2` [CBK262385], the viability at 28.5 h, 10 µM stood at 105%. For the compound `COc1ccc(CN(/N=N/c2nonc2C)c2nonc2C)cc1[N+](=O)[O-]` [CBK262386], the viability at 28.5 h, 10 µM is 99.3%. For `Cc1ccc(S(=O)(=O)N(CC(=O)O)c2cccc(Cl)c2)cc1` [CBK262387], the viability at 28.5 h, 10 µM came to 91.7%. For `COC(=O)c1ccccc1NC(=O)C(C)Oc1ccc(Cl)cc1C` (stereo not shown) [CBK262388], the viability at 28.5 h, 10 µM turned out to be 79.2%. `COc1ccc(N(C(C)C(=O)NN=C2CCN(C)CC2)S(C)(=O)=O)cc1` (stereo not shown) [CBK262390]: the viability at 28.5 h, 10 µM is 94.2%. For the compound `Cc1cc(C)cc(OCC(=O)NNC(=O)CN2C(=O)c3ccccc3C2=O)c1` [CBK262394], the viability at 28.5 h, 10 µM stood at 91.4%. Turning to `O=C(CN1C(=O)S/C(=C\c2ccc(Cl)cc2)C1=O)Nc1cc([N+](=O)[O-])ccc1O` [CBK262396], the viability at 28.5 h, 10 µM is 90.4%. As for `Cc1ccc(N(CC(=O)N/N=C/C(C)C)S(=O)(=O)c2ccccc2)c(C)c1` [CBK262397], the viability at 28.5 h, 10 µM turned out to be 92.5%. On to `Cc1nonc1/N=N/N(CC(=O)N1CCOCC1)c1nonc1C` [CBK262399], for which the viability at 28.5 h, 10 µM was 103%. In the case of `O=C(N/N=C/c1c(O)ccc2ccccc12)c1cnccn1` [CBK262400], the viability at 28.5 h, 10 µM came to 105%. Turning to `O=C(CSc1ncccn1)N/N=C/c1ccncc1` [CBK262401], the viability at 28.5 h, 10 µM is 103%. As to `COc1ccc(N(C(C)C(=O)N/N=C(\C)c2ccccc2O)S(C)(=O)=O)cc1` (stereo not shown) [CBK262402], the viability at 28.5 h, 10 µM was determined as 93.4%. On to `CCOc1cc(/C=N/NC(=O)CSc2nc(C)cc(C)n2)ccc1O` [CBK262405], for which the viability at 28.5 h, 10 µM amounted to 96.1%.

`Cc1ccc2ccccc2c1CN(/N=N/c1nonc1C)c1nonc1C` [CBK262412]: the viability at 28.5 h, 10 µM came out at 99.6%. Still for that read-out and setting: the value for `CN(C)c1ccc(NC(=O)C(Cc2ccccc2)N2C(=O)c3ccccc3C2=O)cc1` (stereo not shown) [CBK262413] was 99.6%; that for `COc1ccc(N(CC(=O)O)S(=O)(=O)c2ccccc2)c(OC)c1` [CBK262415] was 108%. Still for that read-out and setting: then `CCc1nnc(NS(=O)(=O)c2ccc(N/C=C3\C(=O)N(c4ccc(Cl)cc4)N=C3C)cc2)s1` [CBK262416], with 110%. As for `N#Cc1c(NC(=O)CSc2nnc3c(n2)[nH]c2ccccc23)sc2c1CCCC2` [CBK262417], the viability at 28.5 h, 10 µM amounted to 93%. Still for that read-out and setting: then `CS(=O)(=O)N(CC(=O)O)c1cccc2ccccc12` [CBK262420], with 101%; and `Cc1ccc(Cl)cc1N(CC(=O)O)S(=O)(=O)c1ccccc1` [CBK262424], with 93%. `Cc1c(C)n(Cc2ccccc2)c2ccc(C(=O)OCCN3CCOCC3)cc12` [CBK262427]: the viability at 28.5 h, 10 µM was 104%. As to `CC1=NN(c2nc(-c3ccc(Br)cc3)cs2)C(=O)C1/N=N/c1cccc(CO)c1` (stereo not shown) [CBK262429], the viability at 28.5 h, 10 µM worked out at 104%. Still for that read-out and setting: then `Cc1cc(C)cc(CC(C)Cc2nc3ccccc3[nH]2)c1` (stereo not shown) [CBK262432], with 92.3%.

As for `CC1=NN(c2nc(-c3cccc([N+](=O)[O-])c3)cs2)C(=O)C1/N=N/c1ccc(S(N)(=O)=O)cc1` (stereo not shown) [CBK262434], the viability at 28.5 h, 10 µM was 94%. In the case of `COc1cc(Cl)cc(/C=N/Nc2nc(Nc3ccc(C)c(Cl)c3)nc(N3CCOCC3)n2)c1O` [CBK262436], the viability at 28.5 h, 10 µM stood at 102%. On the same count and under the same terms, then `CC1=NN(c2nc(-c3ccc(Br)cc3)cs2)C(=O)C1/N=N/c1ccccc1C(=O)O` (stereo not shown) [CBK262440], with 91.8%.

Take `CCOc1nc(Nc2nc(-c3ccccc3)cs2)nc(OCC)n1` [CBK262442]: the viability at 28.5 h, 10 µM was determined as 98.1%.

Consider `O=C(CN1CCSCC1)NNC(=S)Nc1ccccc1` [CBK262445], for which the viability at 28.5 h, 10 µM is 102%.

As for `CC12CCC(C(=O)N(CC(O)Cn3c4ccc(Br)cc4c4cc(Br)ccc43)C1=O)C2(C)C` (stereo not shown) [CBK262449], the viability at 28.5 h, 10 µM turned out to be 94.4%.

Take `CCNC(=O)c1c(O)nc2ccccc2c1O` [CBK262450]: the viability at 28.5 h, 10 µM worked out at 103%.

Regarding `N=c1n(CCN2CCCCC2)c2ccccc2n1CC(O)COc1ccccc1` (stereo not shown) [CBK262451C], the viability at 28.5 h, 10 µM was 88.5%. Turning to `CCCC(=O)Nc1sc(C)c(C)c1C(=O)Nc1ccccc1OC` [CBK262455], the viability at 28.5 h, 10 µM turned out to be 104%.

Take `CC(=O)c1cccc(NC(=O)/C(=C\c2cccnc2)NC(=O)c2ccc(C)cc2)c1` [CBK262456]: the viability at 28.5 h, 10 µM amounted to 88.6%. Consider `O=C(NNC1=C(C(=O)C(F)(F)F)CCC1)c1cccnc1` [CBK262459], for which the viability at 28.5 h, 10 µM worked out at 89.1%. For the compound `c1csc(CNc2nc3ccccc3n2CCN2CCOCC2)c1` [CBK262462], the viability at 28.5 h, 10 µM was determined as 109%. The same measure, in the same setting: then `Cc1ccc([N+](=O)[O-])cc1NC(=O)C1Cc2ccccc2CN1C(=O)OCc1ccccc1` (stereo not shown) [CBK262463], with 100%; and `CC1(c2ccccc2)CC(C)(C)N(C(=O)CSc2nc3ccccc3o2)c2ccccc21` (stereo not shown) [CBK262466], with 104%. `C/C(=N\NC(=N)SC1CC(=O)N(c2ccc(C(=O)O)cc2)C1=O)c1cccs1` (stereo not shown) [CBK262471]: the viability at 28.5 h, 10 µM came to 103%.

In the case of `Cc1ccc(C2=NN(C(=N)SC3CC(=O)N(c4ccc(C(=O)O)cc4)C3=O)C(c3ccc(Cl)cc3)C2)cc1` (stereo not shown) [CBK262472], the viability at 28.5 h, 10 µM was 91.5%.

As to `Oc1ccc(/C=N/c2ccc(O)c(-c3nc4ccccc4s3)c2)cc1O` [CBK262473], the viability at 28.5 h, 10 µM was found to be 98.9%. Turning to `CC(=O)CCc1oc2c([N+](=O)[O-])cccc2c1-c1ccc(C)o1` [CBK262476], the viability at 28.5 h, 10 µM is 89.4%. Take `O=C(O)c1ccc(S(=O)(=O)NC2CCS(=O)(=O)C2)cc1` (stereo not shown) [CBK262477]: the viability at 28.5 h, 10 µM worked out at 110%. In the case of `Cc1ccc(S(=O)(=O)N(CC(=O)N/N=C\c2ccc3c(c2)OCO3)c2cccc3cccnc23)cc1` [CBK262478], the viability at 28.5 h, 10 µM amounted to 101%. On to `CC(C)(C)c1cc(C(=O)Cn2c(=N)n(Cc3ccccc3)c3ccccc32)cc(C(C)(C)C)c1O` [CBK262480B], for which the viability at 28.5 h, 10 µM worked out at 97.5%. Same read-out and setting: then `N=c1n(CC(=O)c2ccc(Br)s2)c2ccccc2n1Cc1ccccc1` [CBK262482B], with 91.4%; and `O=C(O)c1cc(N/N=C/c2ccc(-c3ccc(Cl)c(C(=O)O)c3)o2)ccc1Cl` [CBK262483], with 88.8%. Take `Cc1ccc(C(=O)O/C(=C/c2nc3ccccc3n2Cc2cccc3ccccc23)c2ccc(C)cc2)cc1` [CBK262485]: the viability at 28.5 h, 10 µM worked out at 108%. As for `CN1CCC(=NNC(=O)CN(c2cccc(Cl)c2)S(=O)(=O)c2ccccc2)CC1` [CBK262489], the viability at 28.5 h, 10 µM turned out to be 98%. For the compound `NC(=O)CN(CC(N)=O)S(=O)(=O)c1ccccc1` [CBK262490], the viability at 28.5 h, 10 µM was 85.4%. Regarding `O=C1Nc2ccc([N+](=O)[O-])cc2C1(O)N1CCCCC1` (stereo not shown) [CBK262496], the viability at 28.5 h, 10 µM worked out at 80.6%.

`Cc1cccc(Nc2nc(N/N=C/c3c[nH]nc3-c3ccccc3)nc(N3CCC(C)CC3)n2)c1C` [CBK262498]: the viability at 28.5 h, 10 µM worked out at 89.3%.

Regarding `O=C(CN(Cc1ccccc1)S(=O)(=O)c1ccc2c(c1)OCCO2)Nc1ccc2c(c1)OCCO2` [CBK262499], the viability at 28.5 h, 10 µM amounted to 98.5%. The same measure, in the same setting: then `COc1ccc(NC(=O)C2CN(S(=O)(=O)c3ccccc3)CCN2S(=O)(=O)c2ccccc2)cc1` (stereo not shown) [CBK262500], with 98.5%; and `NS(=O)(=O)c1ccc(Nc2nc(-c3cccs3)cs2)cc1` [CBK262502], with 96.2%; and `Cc1cc(NS(=O)(=O)c2ccc(Nc3nc(-c4cccs4)cs3)cc2)no1` [CBK262504], with 101%. Regarding `COc1ccc([N+](=O)[O-])cc1-c1ccc(/C=N/NC(=O)Cn2nnnc2N)o1` [CBK262505], the viability at 28.5 h, 10 µM was 92.2%.

As to `O=C(CSc1ccc2ccccc2n1)NNC(=O)c1cccc([N+](=O)[O-])c1` [CBK262506], the viability at 28.5 h, 10 µM turned out to be 91.7%.

For the compound `CC1=CC(C)C(CN(CCC[N+](C)(C)C)C(=O)Nc2ccccc2)C(C)C1` (stereo not shown) [CBK262507I], the viability at 28.5 h, 10 µM was 84.3%. Consider `COc1ccc2c(c1)nc(SCC(O)c1ccccc1)n2C` (stereo not shown) [CBK262508], for which the viability at 28.5 h, 10 µM was found to be 97.6%. Same read-out and setting: then `O=C(CC1Nc2ccccc2NC1=O)Nc1cccc(C(F)(F)F)c1` (stereo not shown) [CBK262510], with 99.6%. Consider `O=[N+]([O-])c1cnc(NCCCn2ccnc2)c([N+](=O)[O-])c1` [CBK262511], for which the viability at 28.5 h, 10 µM was determined as 94.4%. Take `O=C1CN(S(=O)(=O)c2ccc(NS(=O)(=O)c3ccc4ccccc4c3)cc2)CC(=O)N1` [CBK262513]: the viability at 28.5 h, 10 µM stood at 95.4%. The same measure, in the same setting: then `O=C(O)c1cc(S(=O)(=O)NC(CO)C(O)c2ccc([N+](=O)[O-])cc2)ccc1Br` (stereo not shown) [CBK262515], with 104%; and `CC1(NC(=O)CC[N+]23CCN(CC2)CC3)CS(=O)(=O)CC1S(=O)(=O)[O-]` (stereo not shown) [CBK262518], with 92%; and `O=C1CC(c2ccccc2)CC(=O)C1=CNCc1ccccn1` (stereo not shown) [CBK262521], with 105%. `O=C(Nc1ccc(Cc2ccncc2)cc1)c1ccc(CSc2ccc(Cl)cc2)cc1` [CBK262526]: the viability at 28.5 h, 10 µM was 86.9%.

As for `O=C1c2cccc3cccc(c23)C(=O)N1CCN1CCN(S(=O)(=O)c2ccccc2[N+](=O)[O-])CC1` [CBK262530], the viability at 28.5 h, 10 µM is 97.7%.

Staying with this data set, now noted: human, hela cells, % viability, bulk resorufin, single well.
`O=C1NC(=S)NC(=O)C1=CNc1ccc(F)c(Cl)c1` [CBK262391]: the viability at 28.5 h, 10 µM was found to be 118%. As to `Cc1c([N+](=O)[O-])c([N+](=O)[O-])nn1CC(=O)NCc1cccnc1` [CBK262428], the viability at 28.5 h, 10 µM was determined as 97.2%. Take `COc1cc(C=C2C(=O)NC(=O)NC2=O)cc(I)c1OCc1ccc(Cl)cc1Cl` [CBK262528]: the viability at 28.5 h, 10 µM is 91.8%.
